Measurements taken from the NIST ThermoML archive (doi:10.1021/je8003595).

Test: mn = molality of the nth substance listed, in mol/kg
Conditions: 101 kPa, Liquid; for viscosity: Capillary tube (Ostwald / Ubbelohde) method

O=C(Oc1ccccc1)c1ccccc1O [phenyl salicylate] + CC#N
Conditions	mass density, 308.15 K [kg/m3]	mass density, 310.15 K [kg/m3]	mass density, 313.15 K [kg/m3]	viscosity, 308.15 K [mPa·s]	viscosity, 310.15 K [mPa·s]	viscosity, 313.15 K [mPa·s]
m1 = 0.0098	766.875	764.642	–	0.2453	0.238	–
m1 = 0.0099	–	–	761.351	–	–	0.2272
m1 = 0.0131	767.071	764.835	–	0.2455	0.2381	–
m1 = 0.0132	–	–	761.545	–	–	0.2274
m1 = 0.0164	767.241	765.015	–	0.2457	0.2382	–
m1 = 0.0165	–	–	761.711	–	–	0.2276
m1 = 0.0197	767.385	765.153	–	0.2459	0.2384	–
m1 = 0.0198	–	–	761.849	–	–	0.2278
m1 = 0.023	767.558	765.331	–	0.2461	0.2385	–
m1 = 0.0231	–	–	762.019	–	–	0.2279
m1 = 0.0263	767.695	765.465	–	0.2463	0.2386	–
m1 = 0.0264	–	–	762.135	–	–	0.228
m1 = 0.0329	767.859	765.629	–	0.2466	0.2388	–
m1 = 0.033	–	–	762.341	–	–	0.2282
